Source: patent US9085806B2, “Methods for treating infection involving identification of a carbapanemase gene” (priority 2007, dated 2015)

How the values were obtained:
Assay in all cases: Antimicrobial susceptibility testing, broth microdilution (CLSI)
Type in all cases: cell-based
E. coli Strain ID 301922 = conditions: Escherichia coli; Strain ID 301922 ESCCOL, ESBL positive; Mueller-Hinton broth; read-out: minimum inhibition concentration (MIC)
From the text: (§1) Carbapenem-resistant Klebsiella and E. coli were identified by broth microdilution as described by CLSI from the BD ID/AST microbial bank (1). Wild-type (Ampicillin sensitive) E. coli ATCC 25922 (Strain ID 300960) was used through out the experiments as a negative control. Three strains previously determined to contain KPC-1, KPC-2, and KPC-3 (Strain ID 301916=KPC-1, 301917=KPC-2, 301918=KPC-3) were used as positive controls (4). […] ESBL positive strains were identified using the CLSI recommended broth microdilution assay (2). Prior to any processing or extraction, all strains were streaked out on Trypticase Soy Agar (TSA) plates containing 5% Sheep red blood cells (BD Diagnostic Systems, Sparks, Md.) and grown at 35° C. overnight.
(§2) Antimicrobial susceptibility testing was performed using Mueller-Hinton broth (BD Diagnostic Systems, Sparks, Md.) as described by CLSI (1). Antimicrobial powders were acquired from the following companies; Ampicillin (Amp) and Cefotaxime (CTX) (Sigma Chemical Co., St. Louis, Mo.), Ceftazidime (CAZ) (Eli Lilly, Indianapolis, Ind.), Clavulanic acid (Smith-Kline, King of Prussia, Pa.), Imipenem (IPM) (Merck & Co., Rahway, N.J.).
(§3) The BD ID/AST Microbial Bank was screened for carbapenem-resistant Klebsiella and E. coli with broth microdilution as described by CLSI (2). Klebsiella spp. and E. coli were chosen because they are the primary reservoir species for the plasmid-borne KPC gene.
(§4) ESBL positive strains were identified using the CLSI recommended broth microdilution assay (2). Briefly, this broth microdilution assay has a two-fold dilution scheme between a defined range of the antimicrobial agent. For example, where the defined range of the antimicrobial agent is […], the two-fold dilution between wells is represented by 0.25, 0.5, 1, 2, 4, 8, and 16 μg/ml. To identify ESBL positive strains, growth is evaluated in wells containing the antimicrobial agent of interest at these various two-fold dilutions across the defined range either alone or in combination with Clavulanic acid in order to determine the MIC for the antimicrobial agent alone or in combination with Clavulanic acid. […] A wild-type E. coli Strain ID 300960 was also screened and used as a negative control for all of the real-time assays.

[1] = system: E. coli Strain ID 301918 (KPC-3); conditions: Escherichia coli; Strain ID 301918 ESCCOL, KPC-3 positive control; Mueller-Hinton broth; read-out: minimum inhibition concentration (MIC)
From the text: as §1, §2, §3, §4

E. coli Strain ID 303364 = conditions: Escherichia coli; Strain ID 303364 ESCCOL; Mueller-Hinton broth; read-out: minimum inhibition concentration (MIC)
From the text: as §1, §2, §3, §4

E. coli Strain ID 303365 = conditions: Escherichia coli; Strain ID 303365 ESCCOL, ESBL positive; Mueller-Hinton broth; read-out: minimum inhibition concentration (MIC)
From the text: as §1, §2, §3, §4

[2] = system: Klebsiella oxytoca Strain ID 300967; conditions: Strain ID 300967 KLEOXY, Mueller-Hinton broth, read-out: minimum inhibition concentration (MIC)
From the text: as §1, §2, §3, §4

E. coli Strain ID 301921 = conditions: Escherichia coli; Strain ID 301921 ESCCOL, ESBL positive; Mueller-Hinton broth; read-out: minimum inhibition concentration (MIC)
From the text: as §1, §2, §3, §4

E. coli Strain ID 301888 = conditions: Escherichia coli; Strain ID 301888 ESCCOL, ESBL positive; Mueller-Hinton broth; read-out: minimum inhibition concentration (MIC)
From the text: as §1, §2, §3, §4

[3] = system: Klebsiella pneumoniae Strain ID 301920; conditions: Strain ID 301920 KLEPNEP, ESBL positive, Mueller-Hinton broth, read-out: minimum inhibition concentration (MIC)
From the text: as §1, §2, §3, §4

E. coli Strain ID 301894 = conditions: Escherichia coli; Strain ID 301894 ESCCOL, ESBL positive; Mueller-Hinton broth; read-out: minimum inhibition concentration (MIC)
From the text: as §1, §2, §3, §4

[4] = system: Klebsiella pneumoniae Strain ID 303375; conditions: Strain ID 303375 KLEPNEP, Mueller-Hinton broth, read-out: minimum inhibition concentration (MIC)
From the text: as §1, §2, §3, §4

E. coli Strain ID 301905 = conditions: Escherichia coli; Strain ID 301905 ESCCOL; Mueller-Hinton broth; read-out: minimum inhibition concentration (MIC)
From the text: as §1, §2, §3, §4

[5] = system: Klebsiella pneumoniae Strain ID 301899; conditions: Strain ID 301899 KLEPNEP, Mueller-Hinton broth, read-out: minimum inhibition concentration (MIC)
From the text: as §1, §2, §3, §4

[6] = system: Klebsiella pneumoniae Strain ID 301891; conditions: Strain ID 301891 KLEPNEP, Mueller-Hinton broth, read-out: minimum inhibition concentration (MIC)
From the text: as §1, §2, §3, §4

[7] = system: Klebsiella oxytoca Strain ID 303990; conditions: Strain ID 303990 KLEOXY, Mueller-Hinton broth, read-out: minimum inhibition concentration (MIC)
From the text: as §1, §2, §3, §4

E. coli Strain ID 303369 = conditions: Escherichia coli; Strain ID 303369 ESCCOL; Mueller-Hinton broth; read-out: minimum inhibition concentration (MIC)
From the text: as §1, §2, §3, §4

[8] = system: Klebsiella pneumoniae Strain ID 301008; conditions: Strain ID 301008 KLEPNEP, Mueller-Hinton broth, read-out: minimum inhibition concentration (MIC)
From the text: as §1, §2, §3, §4

E. coli Strain ID 301892 = conditions: Escherichia coli; Strain ID 301892 ESCCOL, ESBL positive; Mueller-Hinton broth; read-out: minimum inhibition concentration (MIC)
From the text: as §1, §2, §3, §4

[9] = system: E. coli ATCC 25922 (Strain ID 300960); conditions: Escherichia coli, ATCC25922; Strain ID 300960 ESCCOL, wild-type negative control; Mueller-Hinton broth; read-out: minimum inhibition concentration (MIC)
From the text: as §1, §2, §3, §4

E. coli Strain ID 301896 = conditions: Escherichia coli; Strain ID 301896 ESCCOL, ESBL positive; Mueller-Hinton broth; read-out: minimum inhibition concentration (MIC)
From the text: as §1, §2, §3, §4

[10] = system: Klebsiella pneumoniae Strain ID 300996; conditions: Strain ID 300996 KLEPNEP, ESBL positive, Mueller-Hinton broth, read-out: minimum inhibition concentration (MIC)
From the text: as §1, §2, §3, §4

[11] = system: Klebsiella pneumoniae Strain ID 301916 (KPC-1); conditions: Strain ID 301916 KLEPNEP, KPC-1 positive control, Mueller-Hinton broth, read-out: minimum inhibition concentration (MIC)
From the text: as §1, §2, §3, §4

[12] = system: Klebsiella pneumoniae Strain ID 301919; conditions: Strain ID 301919 KLEPNEP, ESBL positive, Mueller-Hinton broth, read-out: minimum inhibition concentration (MIC)
From the text: as §1, §2, §3, §4

[13] = system: Klebsiella pneumoniae Strain ID 301917 (KPC-2); conditions: Strain ID 301917 KLEPNEP, KPC-2 positive control, ESBL positive, Mueller-Hinton broth, read-out: minimum inhibition concentration (MIC)
From the text: as §1, §2, §3, §4

[14] = system: Klebsiella pneumoniae Strain ID 301898; conditions: Strain ID 301898 KLEPNEP, Mueller-Hinton broth, read-out: minimum inhibition concentration (MIC)
From the text: as §1, §2, §3, §4

| Compound | MIC (E. coli Strain ID 301922) | MIC [1] | MIC (E. coli Strain ID 303364) | MIC (E. coli Strain ID 303365) | MIC [2] | MIC (E. coli Strain ID 301921) | MIC (E. coli Strain ID 301888) | MIC [3] | MIC (E. coli Strain ID 301894) | MIC [4] | MIC (E. coli Strain ID 301905) | MIC [5] | MIC [6] | MIC [7] | MIC (E. coli Strain ID 303369) | MIC [8] | MIC (E. coli Strain ID 301892) | MIC [9] | MIC (E. coli Strain ID 301896) | MIC [10] | further results |
| --- | --- | --- | --- | --- | --- | --- | --- | --- | --- | --- | --- | --- | --- | --- | --- | --- | --- | --- | --- | --- | --- |
| CC1(C)S[C@@H]2[C@H](NC(=O)[C@H](N)c3ccccc3)C(=O)N2[C@H]1C(=O)O [Amp, Ampicillin] | > 32 µg/mL | > 32 µg/mL | > 32 µg/mL | > 32 µg/mL | > 32 µg/mL | > 32 µg/mL | > 32 µg/mL | > 32 µg/mL | > 32 µg/mL | > 32 µg/mL | > 32 µg/mL | > 32 µg/mL | > 32 µg/mL | > 32 µg/mL | > 32 µg/mL | 16 µg/mL | > 32 µg/mL | ≤ 0.25 µg/mL | > 32 µg/mL | > 32 µg/mL | MIC [11]: > 32 µg/mL; MIC [12]: > 32 µg/mL; MIC [13]: > 32 µg/mL; MIC [14]: > 32 µg/mL |
| C[C@@H](O)[C@H]1C(=O)N2C(C(=O)O)=C(SCCN=CN)C[C@H]12 [IPM, Imipenem] | ≤ 0.25 µg/mL | 16 µg/mL | ≤ 2 µg/mL | ≤ 2 µg/mL | > 16 µg/mL | ≤ 2 µg/mL | 4 µg/mL | ≤ 2 µg/mL | ≤ 2 µg/mL | ≤ 2 µg/mL | 8 µg/mL | 4 µg/mL | ≤ 2 µg/mL | 16 µg/mL | ≤ 2 µg/mL | ≤ 2 µg/mL | 4 µg/mL | ≤ 0.25 µg/mL | ≤ 2 µg/mL | 8 µg/mL | MIC [11]: 8 µg/mL; MIC [12]: ≤ 2 µg/mL; MIC [13]: 8 µg/mL; MIC [14]: 4 µg/mL |
| CO/N=C(\C(=O)N[C@@H]1C(=O)N2C(C(=O)O)=C(COC(C)=O)CS[C@H]12)c1csc(N)n1 [CTX, Cefotaxime] | > 64 µg/mL | > 64 µg/mL | 32 µg/mL | > 64 µg/mL | > 64 µg/mL | > 64 µg/mL | 32 µg/mL | > 64 µg/mL | 16 µg/mL | 32 µg/mL | > 64 µg/mL | > 64 µg/mL | 4 µg/mL | > 64 µg/mL | 32 µg/mL | ≤ 0.25 µg/mL | 32 µg/mL | ≤ 0.25 µg/mL | 64 µg/mL | 2 µg/mL | MIC [11]: > 64 µg/mL; MIC [12]: 16 µg/mL; MIC [13]: 32 µg/mL; MIC [14]: > 64 µg/mL |
| CC(C)(O/N=C(\C(=O)N[C@@H]1C(=O)N2C(C(=O)[O-])=C(C[n+]3ccccc3)CS[C@H]12)c1csc(N)n1)C(=O)O [CAZ, Ceftazidime] | 16 µg/mL | > 128 µg/mL | 128 µg/mL | > 128 µg/mL | 128 µg/mL | 32 µg/mL | 64 µg/mL | 64 µg/mL | > 128 µg/mL | 64 µg/mL | 32 µg/mL | > 128 µg/mL | 16 µg/mL | 128 µg/mL | 64 µg/mL | ≤ 0.25 µg/mL | 64 µg/mL | ≤ 0.5 µg/mL | > 128 µg/mL | 4 µg/mL | MIC [11]: > 128 µg/mL; MIC [12]: 32 µg/mL; MIC [13]: 4 µg/mL; MIC [14]: > 128 µg/mL |
